Read-outs that look alike come from different tables or passages of the source. Values belong to the molecule of their own block, whether it stands above or below them.
Key:
Assay in all cases: biochemical
CaMK2b = CaMK2b (Homo sapiens, UniProt Q13554)
PHKG2 = molecular target: T1, PHKG2 (Homo sapiens, UniProt P15735)
T1 sequence (P15735 1-406): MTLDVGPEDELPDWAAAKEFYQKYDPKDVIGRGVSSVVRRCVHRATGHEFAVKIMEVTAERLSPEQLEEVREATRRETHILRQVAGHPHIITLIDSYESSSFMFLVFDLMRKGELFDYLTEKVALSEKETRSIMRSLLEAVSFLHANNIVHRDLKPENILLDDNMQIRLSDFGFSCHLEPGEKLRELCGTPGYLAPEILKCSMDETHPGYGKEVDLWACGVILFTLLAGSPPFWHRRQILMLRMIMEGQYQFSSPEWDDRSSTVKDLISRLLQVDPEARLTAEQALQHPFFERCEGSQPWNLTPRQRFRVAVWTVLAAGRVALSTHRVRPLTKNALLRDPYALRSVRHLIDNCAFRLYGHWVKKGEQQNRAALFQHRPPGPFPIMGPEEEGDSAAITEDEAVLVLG

OSR1 = OSR1 (Homo sapiens, UniProt O95747)
Chain of OSR1 (O95747 whole entry): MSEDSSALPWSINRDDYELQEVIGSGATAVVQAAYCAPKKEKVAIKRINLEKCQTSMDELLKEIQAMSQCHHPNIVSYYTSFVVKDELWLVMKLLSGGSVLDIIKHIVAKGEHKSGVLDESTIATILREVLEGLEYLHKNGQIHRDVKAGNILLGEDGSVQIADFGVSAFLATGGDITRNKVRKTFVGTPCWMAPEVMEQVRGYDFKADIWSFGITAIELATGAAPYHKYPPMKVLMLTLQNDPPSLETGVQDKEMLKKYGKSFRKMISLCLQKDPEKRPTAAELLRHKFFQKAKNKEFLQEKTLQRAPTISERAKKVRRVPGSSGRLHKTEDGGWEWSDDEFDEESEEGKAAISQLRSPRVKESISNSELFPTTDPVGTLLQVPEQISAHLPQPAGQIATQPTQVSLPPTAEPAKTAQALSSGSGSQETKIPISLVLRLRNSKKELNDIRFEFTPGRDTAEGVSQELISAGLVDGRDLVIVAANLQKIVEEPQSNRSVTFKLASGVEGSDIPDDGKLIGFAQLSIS

NQO2A = molecular target: T2, NQO2A (Homo sapiens, UniProt P16083)
T2 sequence (P16083 1-231): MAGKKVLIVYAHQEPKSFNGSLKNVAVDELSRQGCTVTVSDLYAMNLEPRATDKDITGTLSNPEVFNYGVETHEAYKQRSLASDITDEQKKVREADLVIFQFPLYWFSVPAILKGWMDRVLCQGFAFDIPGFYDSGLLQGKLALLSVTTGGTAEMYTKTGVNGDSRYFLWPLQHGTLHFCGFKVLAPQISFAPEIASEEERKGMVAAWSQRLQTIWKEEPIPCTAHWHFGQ

PLK4 = molecular target: T3, PLK4 (Homo sapiens, UniProt O00444)
T3 sequence (O00444 1-970): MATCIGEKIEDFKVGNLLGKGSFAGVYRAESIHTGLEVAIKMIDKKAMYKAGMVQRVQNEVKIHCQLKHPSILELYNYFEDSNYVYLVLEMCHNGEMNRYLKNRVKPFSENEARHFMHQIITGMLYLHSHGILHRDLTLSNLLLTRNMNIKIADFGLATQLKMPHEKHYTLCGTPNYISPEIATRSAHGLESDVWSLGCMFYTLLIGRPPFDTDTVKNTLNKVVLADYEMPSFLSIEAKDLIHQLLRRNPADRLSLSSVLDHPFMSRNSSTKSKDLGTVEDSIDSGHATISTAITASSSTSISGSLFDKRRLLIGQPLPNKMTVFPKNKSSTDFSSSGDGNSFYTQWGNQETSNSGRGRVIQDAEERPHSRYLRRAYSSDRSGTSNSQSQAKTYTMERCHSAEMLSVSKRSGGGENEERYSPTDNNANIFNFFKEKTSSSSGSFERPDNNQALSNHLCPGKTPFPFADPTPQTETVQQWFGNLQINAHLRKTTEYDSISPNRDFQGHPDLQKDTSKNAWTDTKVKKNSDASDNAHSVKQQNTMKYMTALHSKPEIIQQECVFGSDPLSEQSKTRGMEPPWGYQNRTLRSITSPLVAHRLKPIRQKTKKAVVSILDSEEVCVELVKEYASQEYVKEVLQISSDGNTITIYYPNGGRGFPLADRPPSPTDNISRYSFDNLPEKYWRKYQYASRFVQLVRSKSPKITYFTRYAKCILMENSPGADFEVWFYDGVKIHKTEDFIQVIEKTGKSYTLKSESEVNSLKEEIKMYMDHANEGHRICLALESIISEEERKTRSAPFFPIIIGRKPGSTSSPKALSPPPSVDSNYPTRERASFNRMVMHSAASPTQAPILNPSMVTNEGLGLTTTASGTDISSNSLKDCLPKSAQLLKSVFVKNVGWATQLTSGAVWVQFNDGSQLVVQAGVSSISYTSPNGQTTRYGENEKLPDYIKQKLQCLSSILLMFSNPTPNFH

NEK2 = molecular target: T4, NEK2 (Homo sapiens, UniProt P51955)
T4 sequence (P51955 1-445): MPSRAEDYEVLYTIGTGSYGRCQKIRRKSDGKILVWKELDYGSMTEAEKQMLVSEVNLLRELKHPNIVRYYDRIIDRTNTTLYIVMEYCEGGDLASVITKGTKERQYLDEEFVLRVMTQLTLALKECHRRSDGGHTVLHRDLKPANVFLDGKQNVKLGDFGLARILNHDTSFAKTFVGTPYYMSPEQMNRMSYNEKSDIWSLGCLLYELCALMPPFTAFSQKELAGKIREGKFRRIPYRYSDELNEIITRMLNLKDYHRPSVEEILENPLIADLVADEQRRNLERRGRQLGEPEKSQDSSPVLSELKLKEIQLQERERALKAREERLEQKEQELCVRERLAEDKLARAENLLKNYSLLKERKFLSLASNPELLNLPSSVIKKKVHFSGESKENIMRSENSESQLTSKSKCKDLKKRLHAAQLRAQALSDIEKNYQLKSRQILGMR

BRAF = BRAF (Homo sapiens, UniProt P15056)
CaMKK2 = CaMKK2 (Homo sapiens, UniProt Q96RR4)
Chain of CaMKK2 (Q96RR4 whole entry): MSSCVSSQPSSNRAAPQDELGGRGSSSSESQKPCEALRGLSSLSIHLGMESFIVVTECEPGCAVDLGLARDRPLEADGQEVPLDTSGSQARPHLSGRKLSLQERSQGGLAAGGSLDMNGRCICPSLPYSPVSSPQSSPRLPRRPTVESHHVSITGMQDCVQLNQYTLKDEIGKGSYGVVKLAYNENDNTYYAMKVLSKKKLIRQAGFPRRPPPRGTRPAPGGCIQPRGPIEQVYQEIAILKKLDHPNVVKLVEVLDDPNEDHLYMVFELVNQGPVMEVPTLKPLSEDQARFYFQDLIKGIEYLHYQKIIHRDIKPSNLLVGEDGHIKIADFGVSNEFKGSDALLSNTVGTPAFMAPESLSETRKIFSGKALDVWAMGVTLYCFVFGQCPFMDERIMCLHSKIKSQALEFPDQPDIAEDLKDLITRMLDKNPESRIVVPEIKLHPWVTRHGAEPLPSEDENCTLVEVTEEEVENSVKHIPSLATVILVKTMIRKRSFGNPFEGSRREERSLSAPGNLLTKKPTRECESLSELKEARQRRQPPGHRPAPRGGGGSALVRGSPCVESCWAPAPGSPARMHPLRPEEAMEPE

CLK3 = CLK3 (Homo sapiens, UniProt P49761)
Chain of CLK3 (P49761 whole entry): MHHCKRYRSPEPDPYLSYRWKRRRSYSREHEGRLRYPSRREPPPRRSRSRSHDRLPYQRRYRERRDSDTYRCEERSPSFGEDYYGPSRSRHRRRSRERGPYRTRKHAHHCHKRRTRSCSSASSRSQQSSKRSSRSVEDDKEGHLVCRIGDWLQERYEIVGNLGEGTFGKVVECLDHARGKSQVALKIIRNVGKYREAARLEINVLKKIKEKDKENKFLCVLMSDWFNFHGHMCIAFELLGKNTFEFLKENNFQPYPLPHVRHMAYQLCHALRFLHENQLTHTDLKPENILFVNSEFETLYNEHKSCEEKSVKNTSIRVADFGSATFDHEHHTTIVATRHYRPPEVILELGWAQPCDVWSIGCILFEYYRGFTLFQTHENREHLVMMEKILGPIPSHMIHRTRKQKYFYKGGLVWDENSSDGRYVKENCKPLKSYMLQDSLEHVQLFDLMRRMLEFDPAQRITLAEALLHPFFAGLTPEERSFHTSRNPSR

CLK1 = CLK1 (Homo sapiens, UniProt P49759)
Chain of CLK1 (P49759 whole entry): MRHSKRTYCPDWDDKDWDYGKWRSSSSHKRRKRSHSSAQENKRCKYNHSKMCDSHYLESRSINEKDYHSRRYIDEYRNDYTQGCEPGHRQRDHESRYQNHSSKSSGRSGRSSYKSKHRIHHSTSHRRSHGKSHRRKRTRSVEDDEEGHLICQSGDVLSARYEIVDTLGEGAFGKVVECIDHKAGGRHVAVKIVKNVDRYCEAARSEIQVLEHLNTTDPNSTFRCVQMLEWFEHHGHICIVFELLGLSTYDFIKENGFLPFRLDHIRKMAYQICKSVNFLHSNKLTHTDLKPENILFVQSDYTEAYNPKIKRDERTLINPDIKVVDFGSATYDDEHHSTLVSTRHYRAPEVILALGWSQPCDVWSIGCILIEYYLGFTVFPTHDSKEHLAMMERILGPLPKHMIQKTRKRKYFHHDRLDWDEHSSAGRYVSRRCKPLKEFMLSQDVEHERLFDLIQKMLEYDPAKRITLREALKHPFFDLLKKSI

GPRK5 = GPRK5 (Homo sapiens, UniProt P34947)
Chain of GPRK5 (P34947 whole entry): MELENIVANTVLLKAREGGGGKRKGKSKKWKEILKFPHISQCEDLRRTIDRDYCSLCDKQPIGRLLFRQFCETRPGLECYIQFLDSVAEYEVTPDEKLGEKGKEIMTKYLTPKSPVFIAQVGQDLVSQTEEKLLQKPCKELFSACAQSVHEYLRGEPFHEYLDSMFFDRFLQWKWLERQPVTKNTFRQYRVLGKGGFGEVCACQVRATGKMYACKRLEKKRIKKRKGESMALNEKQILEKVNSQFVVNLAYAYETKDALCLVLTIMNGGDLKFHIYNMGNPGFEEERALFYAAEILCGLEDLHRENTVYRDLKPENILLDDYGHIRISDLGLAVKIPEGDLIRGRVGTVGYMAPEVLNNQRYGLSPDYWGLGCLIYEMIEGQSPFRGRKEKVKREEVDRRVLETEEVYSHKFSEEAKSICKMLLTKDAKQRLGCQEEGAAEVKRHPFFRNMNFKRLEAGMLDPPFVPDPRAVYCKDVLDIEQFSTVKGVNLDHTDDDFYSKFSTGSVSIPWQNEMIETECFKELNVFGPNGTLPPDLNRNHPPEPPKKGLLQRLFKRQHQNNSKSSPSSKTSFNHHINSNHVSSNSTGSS

EpHA4 = EpHA4 (Homo sapiens, UniProt P54764)
Chain of EpHA4 (P54764 whole entry): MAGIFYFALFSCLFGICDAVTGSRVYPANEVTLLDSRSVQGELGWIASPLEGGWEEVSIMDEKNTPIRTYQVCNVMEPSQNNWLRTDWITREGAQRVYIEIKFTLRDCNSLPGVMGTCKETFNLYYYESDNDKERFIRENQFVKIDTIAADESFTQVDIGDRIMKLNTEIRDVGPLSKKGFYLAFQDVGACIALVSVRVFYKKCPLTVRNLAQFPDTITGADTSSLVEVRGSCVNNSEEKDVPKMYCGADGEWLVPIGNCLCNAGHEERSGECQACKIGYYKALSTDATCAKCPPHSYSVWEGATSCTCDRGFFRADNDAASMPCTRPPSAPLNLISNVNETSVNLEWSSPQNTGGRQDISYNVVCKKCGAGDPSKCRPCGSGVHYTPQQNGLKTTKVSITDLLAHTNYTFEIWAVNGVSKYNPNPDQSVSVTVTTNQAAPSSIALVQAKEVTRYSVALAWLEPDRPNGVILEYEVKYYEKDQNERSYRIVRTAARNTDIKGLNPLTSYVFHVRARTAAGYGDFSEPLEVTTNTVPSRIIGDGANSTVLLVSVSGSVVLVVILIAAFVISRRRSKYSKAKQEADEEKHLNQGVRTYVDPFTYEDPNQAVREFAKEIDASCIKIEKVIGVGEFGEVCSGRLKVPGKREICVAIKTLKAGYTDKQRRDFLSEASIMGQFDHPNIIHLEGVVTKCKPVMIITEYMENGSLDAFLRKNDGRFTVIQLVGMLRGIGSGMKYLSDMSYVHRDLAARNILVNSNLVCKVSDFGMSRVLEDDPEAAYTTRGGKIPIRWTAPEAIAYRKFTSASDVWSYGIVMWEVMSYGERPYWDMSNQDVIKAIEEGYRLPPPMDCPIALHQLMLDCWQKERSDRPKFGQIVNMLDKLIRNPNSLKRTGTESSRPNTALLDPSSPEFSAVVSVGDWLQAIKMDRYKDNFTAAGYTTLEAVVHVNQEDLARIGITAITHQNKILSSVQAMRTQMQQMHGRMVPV

Chain of CaMK2b (Q13554 whole entry): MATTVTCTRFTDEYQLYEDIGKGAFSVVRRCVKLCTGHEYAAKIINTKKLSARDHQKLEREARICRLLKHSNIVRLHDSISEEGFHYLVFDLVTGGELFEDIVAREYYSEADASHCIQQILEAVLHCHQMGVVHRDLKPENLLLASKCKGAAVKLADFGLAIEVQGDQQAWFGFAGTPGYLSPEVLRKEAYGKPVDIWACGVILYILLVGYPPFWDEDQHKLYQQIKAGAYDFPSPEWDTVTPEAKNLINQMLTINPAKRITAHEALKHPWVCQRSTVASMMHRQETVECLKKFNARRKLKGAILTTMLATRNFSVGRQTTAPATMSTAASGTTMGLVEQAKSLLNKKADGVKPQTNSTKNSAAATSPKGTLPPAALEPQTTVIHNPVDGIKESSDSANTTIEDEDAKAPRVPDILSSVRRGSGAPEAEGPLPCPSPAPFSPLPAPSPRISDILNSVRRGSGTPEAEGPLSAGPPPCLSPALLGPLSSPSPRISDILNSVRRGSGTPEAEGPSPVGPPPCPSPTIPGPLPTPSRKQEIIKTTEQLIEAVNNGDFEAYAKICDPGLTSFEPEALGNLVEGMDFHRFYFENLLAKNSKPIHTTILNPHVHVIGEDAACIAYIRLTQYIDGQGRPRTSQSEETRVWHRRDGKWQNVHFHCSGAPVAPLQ

- ΔTm at 10 µM (CaMK2b; read-out: dTm 6): 0.1 °C
- ΔTm at 10 µM (PHKG2; read-out: dTm 6): 0.8 °C
- ΔTm at 10 µM (OSR1; read-out: dTm 6): 0.3 °C
- ΔTm at 10 µM (NQO2A; read-out: dTm 6): 0 °C
- ΔTm at 10 µM (PLK4; read-out: dTm 6): 0.4 °C
- ΔTm at 10 µM (NEK2; read-out: dTm 6): 2 °C
- ΔTm at 10 µM (BRAF; read-out: dTm 6): 10.8 °C
- ΔTm at 10 µM (CaMKK2; read-out: dTm 6): -0.2 °C
- ΔTm at 10 µM (CLK3; read-out: dTm 6): -0.3 °C
- ΔTm at 10 µM (CLK1; read-out: dTm 6): 0.2 °C
- ΔTm at 10 µM (GPRK5; read-out: dTm 6): 0 °C
Compound: CNc1ncc2cc(-c3cc(Br)ccc3Cl)c(=O)n(CCCCN)c2n1 [compound 6, 8-(4-Aminobutyl)-6-(5-bromo-2-chlorophenyl)-2-(methylamino)pyrido[2,3-d]pyrimidin-7(8H)-one]

- ΔTm at 10 µM (CaMK2b; read-out: dTm 7): 0.2 °C
- ΔTm at 10 µM (PHKG2; read-out: dTm 7): 0.3 °C
- ΔTm at 10 µM (OSR1; read-out: dTm 7): 0 °C
- ΔTm at 10 µM (NQO2A; read-out: dTm 7): 0.6 °C
- ΔTm at 10 µM (PLK4; read-out: dTm 7): 0.4 °C
- ΔTm at 10 µM (EpHA4; read-out: dTm 7): 3.6 °C
- ΔTm at 10 µM (NEK2; read-out: dTm 7): 2.1 °C
- ΔTm at 10 µM (BRAF; read-out: dTm 7): 8.3 °C
- ΔTm at 10 µM (CaMKK2; read-out: dTm 7): 0.5 °C
- ΔTm at 10 µM (CLK3; read-out: dTm 7): 0.5 °C
- ΔTm at 10 µM (CLK1; read-out: dTm 7): 0.4 °C
- ΔTm at 10 µM (GPRK5; read-out: dTm 7): 0.2 °C
Compound: CNc1ncc2cc(-c3cc(Br)ccc3Cl)c(=O)n(C[C@H]3OC[C@H](N)CO3)c2n1 [compound 7, 8-(((2r,5r)-5-Amino-1,3-dioxan-2-yl)methyl)-6-(5-bromo-2-chlorophenyl)-2-(methylamino)pyrido[2,3-d]pyrimidin-7(8H)-one]

- ΔTm at 10 µM (CaMK2b; read-out: dTm MR22 (5)): -0.6 °C
- ΔTm at 10 µM (PHKG2; read-out: dTm MR22 (5)): 1.4 °C
- ΔTm at 10 µM (OSR1; read-out: dTm MR22 (5)): -0.8 °C
- ΔTm at 10 µM (NQO2A; read-out: dTm MR22 (5)): -0.2 °C
- ΔTm at 10 µM (PLK4; read-out: dTm MR22 (5)): 0.3 °C
- ΔTm at 10 µM (EpHA4; read-out: dTm MR22 (5)): 3 °C
- ΔTm at 10 µM (NEK2; read-out: dTm MR22 (5)): 1 °C
- ΔTm at 10 µM (BRAF; read-out: dTm MR22 (5)): 9.2 °C
- ΔTm at 10 µM (CaMKK2; read-out: dTm MR22 (5)): -0.1 °C
- ΔTm at 10 µM (CLK3; read-out: dTm MR22 (5)): -0.4 °C
- ΔTm at 10 µM (CLK1; read-out: dTm MR22 (5)): 0.4 °C
- ΔTm at 10 µM (GPRK5; read-out: dTm MR22 (5)): -0.6 °C
Compound: CNc1ncc2cc(-c3cc(F)ccc3F)c(=O)n(CCCCN)c2n1 [compound 5, 8-(4-Aminobutyl)-6-(2,5-difluorophenyl)-2-(methylamino)pyrido[2,3-d]pyrimidin-7(8H)-one]

- dTm G-5555 (2) (CaMK2b; 10 µM, binder): -1.7 °C
- dTm G-5555 (2) (PHKG2; 10 µM, binder): 0.6 °C
- dTm G-5555 (2) (OSR1; 10 µM, binder): 0.2 °C
- dTm G-5555 (2) (PLK4; 10 µM, binder): 3.4 °C
- dTm G-5555 (2) (BRAF; 10 µM, binder): 3.9 °C
- dTm G-5555 (2) (CaMKK2; 10 µM, binder): 1.1 °C
- dTm G-5555 (2) (CLK3; 10 µM, binder): 0.1 °C
- dTm G-5555 (2) (CLK1; 10 µM, binder): 0.1 °C
- dTm G-5555 (2) (GPRK5; 10 µM, binder): -0.2 °C
Compound: CNc1ncc2cc(-c3ccc(-c4cccc(C)n4)cc3Cl)c(=O)n(CC3OCC(N)CO3)c2n1 (centres unmarked) [compound 2, G-5555]

- ΔTm at 10 µM (CaMK2b; read-out: dTm MR21 (4)): -1.1 °C
- ΔTm at 10 µM (PHKG2; read-out: dTm MR21 (4)): 0.3 °C
- ΔTm at 10 µM (OSR1; read-out: dTm MR21 (4)): 1.3 °C
- ΔTm at 10 µM (NQO2A; read-out: dTm MR21 (4)): -1 °C
- ΔTm at 10 µM (PLK4; read-out: dTm MR21 (4)): 0 °C
- ΔTm at 10 µM (EpHA4; read-out: dTm MR21 (4)): 4.9 °C
- ΔTm at 10 µM (NEK2; read-out: dTm MR21 (4)): 0.5 °C
- ΔTm at 10 µM (BRAF; read-out: dTm MR21 (4)): 12.2 °C
- ΔTm at 10 µM (CaMKK2; read-out: dTm MR21 (4)): 0.6 °C
- ΔTm at 10 µM (CLK3; read-out: dTm MR21 (4)): 0 °C
- ΔTm at 10 µM (CLK1; read-out: dTm MR21 (4)): -1.2 °C
- ΔTm at 10 µM (GPRK5; read-out: dTm MR21 (4)): -1.2 °C
Compound: CNc1ncc2cc(-c3ccccc3Cl)c(=O)n(CCCCN)c2n1 [compound 4, 8-(4-Aminobutyl)-6-(2-chlorophenyl)-2-(methylamino)pyrido[2,3-d]pyrimidin-7(8H)-one]

Reference: paper doi:10.1101/2023.03.24.534094v2 (biorxiv, 2023)
